This assay concerns the target T1, Recombinant human TPH1 (MBP tagged) (Homo sapiens, UniProt P17752).
T1 construct: cloning full length human TPH1 cDNA in to a bacterial pMAL-c5E expression vector; made in house; host or cells: E. coli BL21 (DE3)
T1 sequence (P17752 1-444): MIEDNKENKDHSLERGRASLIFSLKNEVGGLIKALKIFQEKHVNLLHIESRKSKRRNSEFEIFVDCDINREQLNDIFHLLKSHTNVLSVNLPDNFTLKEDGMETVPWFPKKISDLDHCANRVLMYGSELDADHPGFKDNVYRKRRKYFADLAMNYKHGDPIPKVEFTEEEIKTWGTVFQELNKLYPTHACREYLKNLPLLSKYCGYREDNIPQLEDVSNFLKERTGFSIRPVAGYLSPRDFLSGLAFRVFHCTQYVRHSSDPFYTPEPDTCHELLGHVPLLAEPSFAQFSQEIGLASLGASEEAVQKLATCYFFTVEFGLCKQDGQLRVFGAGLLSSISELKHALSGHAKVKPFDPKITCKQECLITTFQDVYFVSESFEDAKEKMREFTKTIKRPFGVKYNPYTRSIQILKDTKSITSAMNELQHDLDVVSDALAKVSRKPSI
Nature of the assay: TPH1 in vitro inhibition assay (kinetic fluorescence). The class given is biochemical. To be noted: read-out: TPH1 Range (TPH1 inhibition IC50). The gist of the method:
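Final mix: 15 nM MBP-TPH1, 30 μM Trp, 36 μM 6-methyltetrahydropterin, 25 μM ferrous ammonium sulfate, 50 mM MES pH 7.1, 1% DMSO, room temperature.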

The IC50 is the point on the concentration scale where inhibition reaches its midpoint.

Molecules are shown by their SMILES. Bounds are passed on as bounds.

Consider `COCCOc1cc(Cl)ccc1[C@@H](Oc1cc(N2CCC3(CC2)CN[C@H](C(=O)O)C3)nc(N)n1)C(F)(F)F` [Example 36, (S)-8-(2-amino-6-((R)-1-(4-chloro-2-(2-methoxyethoxy)phenyl)-2,2,2-trifluoroethoxy)pyrimidin-4-yl)-2,8-diazaspiro[4.5]decane-3-carboxylic acid], for which the IC50 lay within 3 to 10 µM.

As to `Nc1nc(O[C@H](c2ccc(Cl)cc2-n2cnc3ccccc32)C(F)(F)F)cc(N2CCC3(CC2)CN[C@H](C(=O)O)C3)n1` [Example 36b, (S)-8-(6-((R)-1-(2-(1H-benzo[d]imidazol-1-yl)-4-chlorophenyl)-2,2,2-trifluoroethoxy)-2-aminopyrimidin-4-yl)-2,8-diazaspiro[4.5]decane-3-carboxylic acid], the concentration for half-maximal inhibition (IC50) was 0.05 to 0.3 µM. The result for `Nc1nc(O[C@H](c2ccc(Cl)cc2-n2ncc3ccccc32)C(F)(F)F)cc(N2CCC3(CC2)CN[C@H](C(=O)O)C3)n1` [Example 36c, (S)-8-(2-amino-6-((R)-1-(4-chloro-2-(1H-indazol-1-yl)phenyl)-2,2,2-trifluoroethoxy)pyrimidin-4-yl)-2,8-diazaspiro[4.5]decane-3-carboxylic acid] reads below 0.05 µM. With `Nc1nc(O[C@H](c2ccc(Br)cc2N2CCNCC2)C(F)(F)F)cc(N2CCC3(CC2)CN[C@H](C(=O)O)C3)n1` [Example 36d, (S)-8-(2-amino-6-((R)-1-(4-bromo-2-(piperazin-1-yl)phenyl)-2,2,2-trifluoroethoxy)pyrimidin-4-yl)-2,8-diazaspiro[4.5]decane-3-carboxylic acid] the figure was 3 to 10 µM; with `CC(C)Oc1ccc(-c2ccc([C@@H](Oc3cc(N4CCC5(CC4)CN[C@H](C(=O)O)C5)nc(N)n3)C(F)(F)F)c(N3CCNCC3)c2)cc1` [Example 36e, (S)-8-(2-amino-6-((R)-2,2,2-trifluoro-1-(4′-isopropoxy-3-(piperazin-1-yl)-[1,1′-biphenyl]-4-yl)ethoxy)pyrimidin-4-yl)-2,8-diazaspiro[4.5]decane-3-carboxylic acid], 0.3 to 3 µM. Turning to `CC(C)Oc1ccc(-c2ccc([C@@H](Oc3cc(N4CCC5(CC4)CN[C@H](C(=O)O)C5)nc(N)n3)C(F)(F)F)c(N3CCOCC3)c2)cc1` [Example 36f, (S)-8-(2-amino-6-((R)-2,2,2-trifluoro-1-(4′-isopropoxy-3-morpholino-[1,1′-biphenyl]-4-yl)ethoxy)pyrimidin-4-yl)-2,8-diazaspiro[4.5]decane-3-carboxylic acid], the half-inhibitory concentration (IC50) lay within 0.05 to 0.3 µM. With `Nc1nc(O[C@H](c2ccccc2-c2ccccc2)C(F)(F)F)cc(N2CCC3(CC2)CN[C@H](C(=O)O)C3)n1` [Example 36g, (S)-8-(6-((R)-1-([1,1′-biphenyl]-2-yl)-2,2,2-trifluoroethoxy)-2-aminopyrimidin-4-yl)-2,8-diazaspiro[4.5]decane-3-carboxylic acid] the figure was below 0.05 µM; with `CC(Oc1cc(N2CCC3(CC2)CN[C@H](C(=O)O)C3)nc(N)n1)C1C2CC3CC(C2)CC1C3` (stereo partly drawn) [Example 37, (3S)-8-(6-(1-((1r,3r,5S,7S)-adamantan-2-yl)ethoxy)-2-aminopyrimidin-4-yl)-2,8-diazaspiro[4.5]decane-3-carboxylic acid], 3 to 10 µM; with `Nc1nc(OCC2C3CC4CC(C3)CC2C4)cc(N2CCC3(CC2)CN[C@H](C(=O)O)C3)n1` (stereo partly drawn) [Example 38, (S)-8-(6-((1r,3r,5S,7S)-adamantan-2-ylmethoxy)-2-aminopyrimidin-4-yl)-2,8-diazaspiro[4.5]decane-3-carboxylic acid], 0.3 to 3 µM. As for `Nc1nc(NCc2ccc3ccccc3c2)nc(N2CCC3(CC2)CNC(C(=O)O)C3)n1` (centres unmarked) [Example 39a, 8-(4-Amino-6-((naphthalen-2-ylmethyl)amino)-1,3,5-triazin-2-yl)-2,8-diazaspiro[4.5]decane-3-carboxylic acid], the 50% inhibitory concentration (IC50) was in the range of 0.3 to 3 µM.

Consider `Nc1nc(NCc2ccc(-c3ccccc3)cc2)nc(N2CCC3(CC2)CNC(C(=O)O)C3)n1` (centres unmarked) [Example 39b, 8-(4-(([1,1′-biphenyl]-4-ylmethyl)amino)-6-amino-1,3,5-triazin-2-yl)-2,8-diazaspiro[4.5]decane-3-carboxylic acid], for which the IC50 lay within 3 to 10 µM.

For the origin of these results see patent US11759462B2, “Spirocyclic compounds as tryptophan hydroxylase inhibitors” (priority 2013, dated 2023).
